Numbering of substitutions follows the chain as printed. Active and inactive are the calls of the source. No cut-off for these calls is given here.
Legend:
[1] = system: General amino-acid permease GAP1 (Saccharomyces cerevisiae), P19145 [Y395C]; assay: Inhibition of yeast Gap1 Y395C mutant-mediated trehalose activation at 10 mM
[2] = system: T1, General amino-acid permease GAP1 (Saccharomyces cerevisiae), P19145 [R399C]; assay: Induction of yeast Gap1 R399C mutant-mediated trehalose activation at 2 mM in presence of 10 mM MTSEA treated before compound addition
T1 sequence (whole entry): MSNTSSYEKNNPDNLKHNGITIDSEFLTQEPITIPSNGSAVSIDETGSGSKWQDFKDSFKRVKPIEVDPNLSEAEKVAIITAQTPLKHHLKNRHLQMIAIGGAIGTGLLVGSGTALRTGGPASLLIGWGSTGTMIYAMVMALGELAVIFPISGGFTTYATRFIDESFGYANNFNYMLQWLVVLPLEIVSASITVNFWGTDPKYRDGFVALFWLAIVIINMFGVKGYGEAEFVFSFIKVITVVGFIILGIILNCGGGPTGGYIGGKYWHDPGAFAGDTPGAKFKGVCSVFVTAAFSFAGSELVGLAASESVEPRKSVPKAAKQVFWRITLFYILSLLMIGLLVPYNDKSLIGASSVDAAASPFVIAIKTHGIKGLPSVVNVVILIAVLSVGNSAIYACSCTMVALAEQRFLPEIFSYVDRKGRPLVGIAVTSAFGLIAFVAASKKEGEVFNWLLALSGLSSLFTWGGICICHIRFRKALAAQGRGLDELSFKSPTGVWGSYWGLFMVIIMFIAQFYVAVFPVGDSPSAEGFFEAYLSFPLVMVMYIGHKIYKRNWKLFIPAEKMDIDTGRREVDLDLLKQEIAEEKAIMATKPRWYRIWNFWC

[3] = system: T2, General amino-acid permease GAP1 (Saccharomyces cerevisiae), P19145 [C397C]; assay: Activation of yeast Gap1 C397C mutant-mediated amino acid uptake at 10 mM
T2 sequence (whole entry): T1 sequence (whole entry) with C399R

[4] = system: T3, General amino-acid permease GAP1 (Saccharomyces cerevisiae), P19145 [A403C]; assay: Activation of yeast Gap1 A403C mutant-mediated amino acid uptake at 10 mM
T3 sequence (whole entry): T1 sequence (whole entry) with C399R, A403C

[5] = system: T4, General amino-acid permease GAP1 (Saccharomyces cerevisiae), P19145 [A405C]; assay: Induction of yeast GAP1 A405C mutant-mediated amino acid uptake at 2 mM in presence of 10 mM MTSEA treated before compound addition
T4 sequence (whole entry): T1 sequence (whole entry) with C399R, A405C

Chain of General amino-acid permease GAP1 (Saccharomyces cerevisiae), P19145 [Y395C] (P19145 whole entry Y395C): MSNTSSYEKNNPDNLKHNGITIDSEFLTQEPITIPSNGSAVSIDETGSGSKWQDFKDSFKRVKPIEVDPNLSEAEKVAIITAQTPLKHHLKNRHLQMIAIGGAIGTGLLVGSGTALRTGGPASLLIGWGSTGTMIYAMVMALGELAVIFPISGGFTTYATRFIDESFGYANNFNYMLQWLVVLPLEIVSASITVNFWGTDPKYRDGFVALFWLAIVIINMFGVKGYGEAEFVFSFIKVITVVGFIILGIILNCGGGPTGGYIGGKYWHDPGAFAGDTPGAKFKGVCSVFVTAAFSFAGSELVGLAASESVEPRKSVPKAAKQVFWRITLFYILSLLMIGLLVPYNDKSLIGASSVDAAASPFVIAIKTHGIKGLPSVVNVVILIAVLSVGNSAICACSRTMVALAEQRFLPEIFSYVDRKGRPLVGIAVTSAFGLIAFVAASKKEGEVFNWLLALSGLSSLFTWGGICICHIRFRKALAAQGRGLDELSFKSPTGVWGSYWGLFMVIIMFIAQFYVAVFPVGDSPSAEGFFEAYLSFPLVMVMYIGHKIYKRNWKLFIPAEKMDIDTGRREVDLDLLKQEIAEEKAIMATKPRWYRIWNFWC

inhibition [1]: Active
inhibition [2]: Active
Activity [3]: inactive
Activity [4]: inactive
Activity [5]: Active
SMILES: NC(=O)NCCC[C@H](N)C(=O)O

— ChEMBL document CHEMBL1221220, “Transport and signaling via the amino acid binding site of the yeast Gap1 amino acid transceptor” (Nat Chem Biol, 2009)
